{"source": "the OligoGym collection", "note": "Oligonucleotides are written 5' to 3', each unit as a sugar letter and its base; * is a phosphorothioate linkage, no mark a phosphodiester; rarer units and linkages stand in square brackets, end groups in braces. Plain capitals give the bases only. d = 2'-deoxy (DNA); r = 2'-OH (RNA); further: test concentration or dose not given here", "data": [{"target": "UBE2L3", "assay": "reporter assay of Huesken 2005", "conditions": "siRNA", "units": {"normalised inhibition (eCFP-eYFP dual reporter)": "%"}, "values": [{"substance": "sense rGrArCrCrUrArGrCrUrGrArArGrArArUrArCrUdTdT / antisense rArGrUrArUrUrCrUrUrCrArGrCrUrArGrGrUrCdAdG", "normalised inhibition (eCFP-eYFP dual reporter)": 102}, {"substance": "sense rGrCrArGrGrUrCrUrGrUrCrUrGrCrCrArGrUrAdTdT / antisense rUrArCrUrGrGrCrArGrArCrArGrArCrCrUrGrCdCdC", "normalised inhibition (eCFP-eYFP dual reporter)": 52.7}, {"substance": "sense rGrCrUrArArUrUrUrArUrUrGrArCrUrUrGrGrCdTdT / antisense rGrCrCrArArGrUrCrArArUrArArArUrUrArGrCdTdT", "normalised inhibition (eCFP-eYFP dual reporter)": 46.2}, {"substance": "sense rGrCrUrGrArCrCrUrArGrCrUrGrArArGrArArUdTdT / antisense rArUrUrCrUrUrCrArGrCrUrArGrGrUrCrArGrCdCdC", "normalised inhibition (eCFP-eYFP dual reporter)": 70.1}, {"substance": "sense rGrGrArArGrCrCrArGrCrArArCrCrArArArArCdTdT / antisense rGrUrUrUrUrGrGrUrUrGrCrUrGrGrCrUrUrCrCdAdG", "normalised inhibition (eCFP-eYFP dual reporter)": 73}, {"substance": "sense rGrGrCrArArGrGrGrCrUrUrArUrUrGrUrUrCrCdTdT / antisense rGrGrArArCrArArUrArArGrCrCrCrUrUrGrCrCdAdA", "normalised inhibition (eCFP-eYFP dual reporter)": 79.4}, {"substance": "sense rGrGrUrCrUrGrUrCrUrGrCrCrArGrUrArArUrUdTdT / antisense rArArUrUrArCrUrGrGrCrArGrArCrArGrArCrCdTdG", "normalised inhibition (eCFP-eYFP dual reporter)": 74.3}, {"substance": "sense rGrUrCrUrGrUrCrUrGrCrCrArGrUrArArUrUrAdTdT / antisense rUrArArUrUrArCrUrGrGrCrArGrArCrArGrArCdCdT", "normalised inhibition (eCFP-eYFP dual reporter)": 91}, {"substance": "sense rUrArCrCrCrArUrUrCrArArArCrCrArCrCrGrAdTdT / antisense rUrCrGrGrUrGrGrUrUrUrGrArArUrGrGrGrUrAdCdT", "normalised inhibition (eCFP-eYFP dual reporter)": 71.8}, {"substance": "sense rUrArUrCrArCrCrCrArArArCrArUrCrGrArCrGdTdT / antisense rCrGrUrCrGrArUrGrUrUrUrGrGrGrUrGrArUrAdGdA", "normalised inhibition (eCFP-eYFP dual reporter)": 57}, {"substance": "sense rUrArUrUrGrArCrUrUrGrGrCrArArGrGrGrCrUdTdT / antisense rArGrCrCrCrUrUrGrCrCrArArGrUrCrArArUrAdAdA", "normalised inhibition (eCFP-eYFP dual reporter)": 75.3}, {"substance": "sense rUrCrArUrArGrCrArCrUrGrGrUrGrArArUrGrAdTdT / antisense rUrCrArUrUrCrArCrCrArGrUrGrCrUrArUrGrAdGdG", "normalised inhibition (eCFP-eYFP dual reporter)": 77.5}, {"substance": "sense rUrCrCrArGrGrUrUrGrArUrGrArArGrCrUrArAdTdT / antisense rUrUrArGrCrUrUrCrArUrCrArArCrCrUrGrGrAdTdG", "normalised inhibition (eCFP-eYFP dual reporter)": 112}, {"substance": "sense rUrCrCrUrGrArCrArArCrCrCrUrCrCrArUrArUdTdT / antisense rArUrArUrGrGrArGrGrGrUrUrGrUrCrArGrGrAdAdC", "normalised inhibition (eCFP-eYFP dual reporter)": 69.7}, {"substance": "sense rUrGrArUrArArGrGrGrArGrCrCrUrUrCrArGrAdTdT / antisense rUrCrUrGrArArGrGrCrUrCrCrCrUrUrArUrCrAdTdA", "normalised inhibition (eCFP-eYFP dual reporter)": 110}, {"substance": "sense rUrGrUrCrUrGrCrCrArGrUrArArUrUrArGrUrGdTdT / antisense rCrArCrUrArArUrUrArCrUrGrGrCrArGrArCrAdGdA", "normalised inhibition (eCFP-eYFP dual reporter)": 51.7}, {"substance": "sense rUrUrCrArArArCrCrArCrCrGrArArGrArUrCrAdTdT / antisense rUrGrArUrCrUrUrCrGrGrUrGrGrUrUrUrGrArAdTdG", "normalised inhibition (eCFP-eYFP dual reporter)": 65.9}, {"substance": "sense rUrUrCrGrGrGrCrUrGrArCrCrUrArGrCrUrGrAdTdT / antisense rUrCrArGrCrUrArGrGrUrCrArGrCrCrCrGrArAdGdC", "normalised inhibition (eCFP-eYFP dual reporter)": 49}, {"substance": "sense rUrUrGrArCrUrUrGrGrCrArArGrGrGrCrUrUrAdTdT / antisense rUrArArGrCrCrCrUrUrGrCrCrArArGrUrCrArAdTdA", "normalised inhibition (eCFP-eYFP dual reporter)": 61.9}]}, {"target": "UBE2J1", "assay": "reporter assay of Huesken 2005", "conditions": "siRNA", "units": {"normalised inhibition (eCFP-eYFP dual reporter)": "%"}, "values": [{"substance": "sense rArCrArArArArGrGrArGrArGrGrGrArGrCrCrAdTdT / antisense rUrGrGrCrUrCrCrCrUrCrUrCrCrUrUrUrUrGrUdTdG", "normalised inhibition (eCFP-eYFP dual reporter)": 41.7}, {"substance": "sense rArCrArGrCrArUrUrArUrUrArGrCrCrArUrCrAdTdT / antisense rUrGrArUrGrGrCrUrArArUrArArUrGrCrUrGrUdCdC", "normalised inhibition (eCFP-eYFP dual reporter)": 54.7}, {"substance": "sense rArGrArArGrUrCrArArUrUrCrArUrCrUrGrGrAdTdT / antisense rUrCrCrArGrArUrGrArArUrUrGrArCrUrUrCrUdGdC", "normalised inhibition (eCFP-eYFP dual reporter)": 79.6}, {"substance": "sense rArGrArGrArArGrGrUrUrGrUrCrUrArCrUrUrCdTdT / antisense rGrArArGrUrArGrArCrArArCrCrUrUrCrUrCrUdGdA", "normalised inhibition (eCFP-eYFP dual reporter)": 78.8}, {"substance": "sense rArGrGrArArArGrArArGrArGrCrArCrUrUrGrCdTdT / antisense rGrCrArArGrUrGrCrUrCrUrUrCrUrUrUrCrCrUdCdA", "normalised inhibition (eCFP-eYFP dual reporter)": 70.7}, {"substance": "sense rArGrGrArCrArGrCrArUrUrArUrUrArGrCrCrAdTdT / antisense rUrGrGrCrUrArArUrArArUrGrCrUrGrUrCrCrUdTdA", "normalised inhibition (eCFP-eYFP dual reporter)": 74.8}, {"substance": "sense rArUrArUrArUrCrUrGrGrCrArArArCrGrArArUdTdT / antisense rArUrUrCrGrUrUrUrGrCrCrArGrArUrArUrArUdTdC", "normalised inhibition (eCFP-eYFP dual reporter)": 95.9}, {"substance": "sense rArUrCrArUrUrArCrCrArUrGrCrGrCrArGrCrCdTdT / antisense rGrGrCrUrGrCrGrCrArUrGrGrUrArArUrGrArUdCdT", "normalised inhibition (eCFP-eYFP dual reporter)": 55.2}, {"substance": "sense rArUrCrCrArGrGrGrCrCrArCrCrArGrCrCrArAdTdT / antisense rUrUrGrGrCrUrGrGrUrGrGrCrCrCrUrGrGrArUdTdA", "normalised inhibition (eCFP-eYFP dual reporter)": 76}, {"substance": "sense rArUrGrArArArCrCrArCrCrArArGrCrArUrUrAdTdT / antisense rUrArArUrGrCrUrUrGrGrUrGrGrUrUrUrCrArUdGdG", "normalised inhibition (eCFP-eYFP dual reporter)": 68.1}, {"substance": "sense rArUrGrGrUrCrGrArUrUrUrGrArArGrUrGrGrGdTdT / antisense rCrCrCrArCrUrUrCrArArArUrCrGrArCrCrArUdTdA", "normalised inhibition (eCFP-eYFP dual reporter)": 56.3}, {"substance": "sense rArUrUrUrArCrArArGrArUrGrArUrArUrArCrCdTdT / antisense rGrGrUrArUrArUrCrArUrCrUrUrGrUrArArArUdCdA", "normalised inhibition (eCFP-eYFP dual reporter)": 47.6}, {"substance": "sense rCrArArArUrArArGrCrUrUrUrArArGrGrCrArGdTdT / antisense rCrUrGrCrCrUrUrArArArGrCrUrUrArUrUrUrGdCdC", "normalised inhibition (eCFP-eYFP dual reporter)": 56}, {"substance": "sense rCrArCrCrArGrCrCrArArGrArGrArCrArArCrCdTdT / antisense rGrGrUrUrGrUrCrUrCrUrUrGrGrCrUrGrGrUrGdGdC", "normalised inhibition (eCFP-eYFP dual reporter)": 55.8}, {"substance": "sense rCrArGrArArGrUrCrArArUrUrCrArUrCrUrGrGdTdT / antisense rCrCrArGrArUrGrArArUrUrGrArCrUrUrCrUrGdCdC", "normalised inhibition (eCFP-eYFP dual reporter)": 60.5}, {"substance": "sense rCrArUrCrUrCrArGrGrCrCrArUrCrArUrCrCrUdTdT / antisense rArGrGrArUrGrArUrGrGrCrCrUrGrArGrArUrGdCdT", "normalised inhibition (eCFP-eYFP dual reporter)": 64.7}, {"substance": "sense rCrCrCrArArCrCrUrGrUrArGrCrUrArArGrArAdTdT / antisense rUrUrCrUrUrArGrCrUrArCrArGrGrUrUrGrGrGdTdA", "normalised inhibition (eCFP-eYFP dual reporter)": 78.5}, {"substance": "sense rCrCrGrArUrUrUrUrGrArUrGrGrArGrGrArGrUdTdT / antisense rArCrUrCrCrUrCrCrArUrCrArArArArUrCrGrGdAdG", "normalised inhibition (eCFP-eYFP dual reporter)": 48}, {"substance": "sense rCrCrGrGrGrCrCrCrArGrCrArGrCrArGrArGrUdTdT / antisense rArCrUrCrUrGrCrUrGrCrUrGrGrGrCrCrCrGrGdCdG", "normalised inhibition (eCFP-eYFP dual reporter)": 47.4}, {"substance": "sense rCrCrUrUrUrCrArUrCrArArCrCrUrArCrCrCrAdTdT / antisense rUrGrGrGrUrArGrGrUrUrGrArUrGrArArArGrGdAdT", "normalised inhibition (eCFP-eYFP dual reporter)": 56.2}, {"substance": "sense rCrUrCrUrUrArUrArUrUrCrCrGrArCrGrArArUdTdT / antisense rArUrUrCrGrUrCrGrGrArArUrArUrArArGrArGdCdT", "normalised inhibition (eCFP-eYFP dual reporter)": 98.8}, {"substance": "sense rCrUrGrArCrCrArArGrArArGrCrCrArArArGrAdTdT / antisense rUrCrUrUrUrGrGrCrUrUrCrUrUrGrGrUrCrArGdCdT", "normalised inhibition (eCFP-eYFP dual reporter)": 73.1}, {"substance": "sense rCrUrGrArCrUrUrUrGrGrCrArUrUrGrGrCrArGdTdT / antisense rCrUrGrCrCrArArUrGrCrCrArArArGrUrCrArGdGdA", "normalised inhibition (eCFP-eYFP dual reporter)": 76.4}, {"substance": "sense rGrArArGrUrCrArArUrUrCrArUrCrUrGrGrArAdTdT / antisense rUrUrCrCrArGrArUrGrArArUrUrGrArCrUrUrCdTdG", "normalised inhibition (eCFP-eYFP dual reporter)": 75.3}, {"substance": "sense rGrArCrCrArArGrArArGrCrCrArArArGrArArCdTdT / antisense rGrUrUrCrUrUrUrGrGrCrUrUrCrUrUrGrGrUrCdAdG", "normalised inhibition (eCFP-eYFP dual reporter)": 56.7}, {"substance": "sense rGrArGrCrArUrCrUrCrArGrGrCrCrArUrCrArUdTdT / antisense rArUrGrArUrGrGrCrCrUrGrArGrArUrGrCrUrCdAdA", "normalised inhibition (eCFP-eYFP dual reporter)": 64.1}, {"substance": "sense rGrArGrUrArUrArArGrGrArCrArGrCrArUrUrAdTdT / antisense rUrArArUrGrCrUrGrUrCrCrUrUrArUrArCrUrCdCdA", "normalised inhibition (eCFP-eYFP dual reporter)": 91.4}, {"substance": "sense rGrArGrUrCrArGrArCrUrUrArArArCrCrArCrUdTdT / antisense rArGrUrGrGrUrUrUrArArGrUrCrUrGrArCrUrCdAdG", "normalised inhibition (eCFP-eYFP dual reporter)": 88.7}, {"substance": "sense rGrCrArGrArArGrUrCrArArUrUrCrArUrCrUrGdTdT / antisense rCrArGrArUrGrArArUrUrGrArCrUrUrCrUrGrCdCdT", "normalised inhibition (eCFP-eYFP dual reporter)": 54.4}, {"substance": "sense rGrCrCrArCrCrArGrArGrUrArUrCrCrCrArUrGdTdT / antisense rCrArUrGrGrGrArUrArCrUrCrUrGrGrUrGrGrCdAdG", "normalised inhibition (eCFP-eYFP dual reporter)": 53.6}, {"substance": "sense rGrCrCrUrUrUrArArArArUrCrUrGrGrArArGrCdTdT / antisense rGrCrUrUrCrCrArGrArUrUrUrUrArArArGrGrCdAdA", "normalised inhibition (eCFP-eYFP dual reporter)": 50.4}, {"substance": "sense rGrCrGrCrCrGrGrGrCrCrCrArGrCrArGrCrArGdTdT / antisense rCrUrGrCrUrGrCrUrGrGrGrCrCrCrGrGrCrGrCdTdG", "normalised inhibition (eCFP-eYFP dual reporter)": 35.3}, {"substance": "sense rGrCrUrGrUrArCrUrGrArUrUrGrUrCrArUrCrCdTdT / antisense rGrGrArUrGrArCrArArUrCrArGrUrArCrArGrCdTdG", "normalised inhibition (eCFP-eYFP dual reporter)": 62.4}]}]}
